Results published in ChEMBL document CHEMBL1144249, “Identification of a novel class of androgen receptor antagonists based on the bicyclic-1H-isoindole-1,3(2H)-dione nucleus” (Bioorg Med Chem Lett, 2005).

Assays:
[1] = target: T1, Androgen receptor (Homo sapiens, UniProt P10275, T878A)
Description: Inhibition of T877A androgen receptor of human prostate cancer cells in reporter gene assay

[2] = target: T1, Androgen receptor; assay: Inhibition of [3H]-DHT binding to T877A androgen receptor of LNCaP cells
[3] = target: T2, Androgen receptor (Homo sapiens, UniProt P10275)
T2 sequence (P10275 whole entry): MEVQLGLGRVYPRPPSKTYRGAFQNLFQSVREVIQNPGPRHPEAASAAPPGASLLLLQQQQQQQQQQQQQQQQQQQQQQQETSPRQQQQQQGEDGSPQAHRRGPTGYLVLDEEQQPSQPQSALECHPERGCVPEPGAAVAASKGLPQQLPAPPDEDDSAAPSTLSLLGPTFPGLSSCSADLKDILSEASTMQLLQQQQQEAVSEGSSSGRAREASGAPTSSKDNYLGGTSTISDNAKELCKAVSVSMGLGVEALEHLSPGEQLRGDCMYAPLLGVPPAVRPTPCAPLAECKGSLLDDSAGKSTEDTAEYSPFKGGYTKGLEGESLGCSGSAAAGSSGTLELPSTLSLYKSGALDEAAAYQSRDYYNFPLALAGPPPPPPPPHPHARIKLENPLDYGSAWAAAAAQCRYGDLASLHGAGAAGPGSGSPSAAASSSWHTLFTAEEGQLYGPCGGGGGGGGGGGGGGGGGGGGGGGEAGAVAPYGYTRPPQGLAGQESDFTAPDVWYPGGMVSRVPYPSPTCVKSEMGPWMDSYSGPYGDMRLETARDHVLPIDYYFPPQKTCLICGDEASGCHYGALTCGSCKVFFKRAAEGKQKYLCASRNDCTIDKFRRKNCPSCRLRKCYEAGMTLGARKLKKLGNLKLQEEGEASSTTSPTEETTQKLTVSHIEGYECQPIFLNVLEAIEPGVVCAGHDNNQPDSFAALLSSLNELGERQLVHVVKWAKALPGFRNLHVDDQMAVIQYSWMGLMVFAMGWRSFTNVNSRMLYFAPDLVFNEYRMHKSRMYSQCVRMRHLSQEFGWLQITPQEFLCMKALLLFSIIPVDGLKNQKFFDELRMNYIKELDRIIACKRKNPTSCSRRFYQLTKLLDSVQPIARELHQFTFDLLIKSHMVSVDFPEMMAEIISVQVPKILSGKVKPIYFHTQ
Description: Inhibition of human androgen receptor of breast carcinoma MDA-453 cells in reporter gene assay

[4] = target: T2, Androgen receptor; assay: Inhibition of [3H]DHT binding to androgen receptor of MDA-453 cells
[5] = target: T1, Androgen receptor; assay: Activation of T877A androgen receptor of human prostate cancer LNCap cells in reporter gene assay; format: functional, cell-based
[6] = target: Androgen receptor (Homo sapiens, UniProt P10275, L702H/T878A); format: functional, cell-based; conditions: mdamb-pca2b
Chain of Androgen receptor (Homo sapiens, UniProt P10275, L702H/T878A) (P10275 whole entry L702H/T878A): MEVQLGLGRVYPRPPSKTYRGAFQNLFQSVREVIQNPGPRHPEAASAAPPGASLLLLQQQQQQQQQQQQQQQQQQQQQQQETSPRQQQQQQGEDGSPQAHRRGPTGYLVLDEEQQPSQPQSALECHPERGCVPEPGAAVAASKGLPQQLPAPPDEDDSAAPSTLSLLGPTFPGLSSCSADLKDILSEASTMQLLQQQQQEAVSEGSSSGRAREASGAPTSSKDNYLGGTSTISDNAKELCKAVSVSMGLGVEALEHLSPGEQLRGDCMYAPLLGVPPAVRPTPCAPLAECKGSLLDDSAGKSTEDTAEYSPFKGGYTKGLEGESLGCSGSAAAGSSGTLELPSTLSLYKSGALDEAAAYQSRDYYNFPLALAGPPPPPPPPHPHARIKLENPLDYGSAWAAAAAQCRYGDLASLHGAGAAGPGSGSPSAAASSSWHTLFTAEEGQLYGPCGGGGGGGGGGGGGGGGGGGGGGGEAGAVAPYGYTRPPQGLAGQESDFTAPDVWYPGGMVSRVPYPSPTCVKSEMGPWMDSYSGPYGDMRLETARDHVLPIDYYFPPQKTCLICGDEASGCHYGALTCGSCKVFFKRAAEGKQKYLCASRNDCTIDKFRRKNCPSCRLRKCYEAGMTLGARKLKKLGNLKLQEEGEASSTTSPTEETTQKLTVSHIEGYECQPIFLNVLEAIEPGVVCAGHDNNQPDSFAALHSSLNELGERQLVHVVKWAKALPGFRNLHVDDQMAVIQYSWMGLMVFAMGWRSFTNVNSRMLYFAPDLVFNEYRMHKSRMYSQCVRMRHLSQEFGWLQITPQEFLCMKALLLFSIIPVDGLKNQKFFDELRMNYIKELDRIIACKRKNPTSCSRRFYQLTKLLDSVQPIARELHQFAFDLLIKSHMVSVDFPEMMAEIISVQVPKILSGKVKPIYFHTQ

T1 sequence (P10275 whole entry T878A): as the sequence (P10275 whole entry L702H/T878A) above, with H702L counted along it

SMILES	IC50 [1]	Ki [2]	IC50 [3]	Ki [4]	Ki ([2]; lncap)	Agonist activity (qualitative) [5]	IC50 [6]	IC50 [5]
O=C1[C@@H]2C3C=CC(C3)[C@@H]2C(=O)N1c1ccc2cccnc2c1	52 nM	13 nM	1040 nM					
O=C1[C@@H]2C3CCC(C3)[C@@H]2C(=O)N1c1cccc(C(F)(F)F)c1 (stereo in doubt; 13)	12 nM	2 nM	317 nM					
O=C1[C@@H]2C3C=CC(C3)[C@@H]2C(=O)N1c1ccc2ccccc2c1	84 nM	11 nM	1210 nM	284 nM				
O=C1[C@@H]2C3CCC(C3)[C@@H]2C(=O)N1c1ccc([N+](=O)[O-])c(C(F)(F)F)c1 (stereo in doubt; 16)					2 nM			
O=C1[C@@H]2C3C=CC(C3)[C@@H]2C(=O)N1c1ccc(Br)c(C(F)(F)F)c1		0.6 nM	146 nM	46 nM		Agonist	Agonist	
O=C1[C@@H]2C3CCC(C3)[C@@H]2C(=O)N1c1ccc([N+](=O)[O-])c(C(F)(F)F)c1 (stereo in doubt; 15)		2 nM	12 nM	5 nM		Agonist	Agonist	
O=C1[C@@H]2C3C=CC(C3)[C@@H]2C(=O)N1c1ccc(F)c(Cl)c1	33 nM	2 nM	517 nM					
O=C1[C@@H]2C3CCC(C3)[C@@H]2C(=O)N1c1ccc2ccccc2c1	84 nM	11 nM	1200 nM					
O=C1[C@@H]2C3C=CC(C3)[C@@H]2C(=O)N1c1cccc(C(F)(F)F)c1	35 nM	7 nM	744 nM	632 nM				
O=C1[C@@H]2C3C=CC(C3)[C@@H]2C(=O)N1c1cc(Cl)cc(Cl)c1	41 nM	6 nM	307 nM	158 nM				
O=C1[C@@H]2C3C=CC(C3)[C@@H]2C(=O)N1c1ccc([N+](=O)[O-])cc1	30 nM	12 nM	664 nM	192 nM				
Cc1cc(N2C(=O)[C@@H]3C4C=CC(C4)[C@@H]3C2=O)ccc1Br		3.6 nM	220 nM	125 nM		Agonist	Agonist	
Cc1ccc(N2C(=O)[C@@H]3C4C=CC(C4)[C@@H]3C2=O)cc1C	10 nM	3.4 nM	2010 nM	400 nM				
O=C1[C@@H]2C3C=CC(C3)[C@@H]2C(=O)N1c1cc(C(F)(F)F)cc(C(F)(F)F)c1	72 nM	24 nM	1750 nM	401 nM				
O=C1[C@@H]2C3C=CC(C3)[C@@H]2C(=O)N1c1ccc([N+](=O)[O-])c(C(F)(F)F)c1		5 nM	119 nM	55 nM		Agonist	Agonist	
O=C1[C@@H]2C3CCC(C3)[C@@H]2C(=O)N1c1cccc(C(F)(F)F)c1 (stereo in doubt; 12)	7 nM	3.4 nM	127 nM	319 nM				
O=C1[C@@H]2C3C=CC(C3)[C@@H]2C(=O)N1c1ccc([N+](=O)[O-])c2ccccc12		0.5 nM	> 5 nM	1 nM		Agonist	Agonist	
O=C1[C@@H]2C3C=CC(C3)[C@@H]2C(=O)N1c1ccc(O)c2ncccc12	1790 nM	32 nM	418 nM	162 nM				
CC(C)(O)C(=O)Nc1ccc([N+](=O)[O-])c(C(F)(F)F)c1 [HYDROXYFLUTAMIDE]							Agonist	Agonist
